pIC50: −log10 of the molar value. Structures can show the parent of a compound that is named as a salt.
Legend:
[1] = molecular target: T1, STING (Homo sapiens, UniProt Q86WV6, G230A/H232R/R293Q/R71H); test: Inhibition test of human IFN-β production by cGAMP stimulation in THP-1 cells; format: cell-based; settings: PMA-treated THP-1 cells, 2'3'-cGAMP transfection, 18 hours, ELISA of culture supernatant; read-out: Inhibitory effect on the IFN-β production
T1 construct: host or cells: THP-1 cells, PMA-treated
T1 sequence (Q86WV6 whole entry R71H/G230A/H232R/R293Q): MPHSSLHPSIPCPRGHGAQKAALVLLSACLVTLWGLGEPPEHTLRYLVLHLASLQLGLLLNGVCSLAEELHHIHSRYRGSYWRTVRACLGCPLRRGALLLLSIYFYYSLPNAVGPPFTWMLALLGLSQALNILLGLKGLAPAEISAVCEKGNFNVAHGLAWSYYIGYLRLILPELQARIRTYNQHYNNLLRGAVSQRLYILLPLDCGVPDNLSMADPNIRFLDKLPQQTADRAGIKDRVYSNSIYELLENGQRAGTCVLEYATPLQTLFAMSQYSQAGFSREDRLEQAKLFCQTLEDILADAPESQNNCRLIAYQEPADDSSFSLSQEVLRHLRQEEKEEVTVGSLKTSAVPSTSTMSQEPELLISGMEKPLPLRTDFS
Protocol: The human monocytic cell line THP-1 cells were used to measure the amount of IFN-β produced when stimulated with the endogenous ligand cGAMP, thereby evaluating the inhibitory activity of the test compounds on STING activation.
After THP-1 cells (manufactured by ATCC) were seeded in 96-well plates, PMA (manufactured by Santa Cruz Biotechnology, Inc.) adjusted to a concentration after addition of 100 nM was added and cultured overnight at a 37° C. in a 5% CO2 incubator (10% FBS, 50 U/mL penicillin/50 μg/mL streptomycin-containing RPMI 1640 medium). To each well of the plate, a test compound solution adjusted to a final concentration of 0.001-1 μM of the test compound was added and cultured in the CO2 incubator for 1 hour (DMSO final concentration of 0.1%). 0.12 μg/well of 2′3′-cGAMP (manufactured by ChemieTek, #CT-CGAMP) was introduced into the cells by transfection method using Lipofectamine 2000 (manufactured by Invitrogen) and cultured in the CO2 incubator for another 18 hours. After collecting the culture supernatant from each well, the amount of human IFN-P production in the culture supernatant was measured by ELISA method using R&D human IFN-β Duoset (manufactured by R&D systems).
(§1) Method for Evaluating Inhibitory Activity. Taking the amount of human IFN-β production in the group without test compounds added and with cGAMP added as 100% and the amount of human IFN-β production in the group without test compounds added and without cGAMP added as 0%, IC50 values were determined by regression analysis of the inhibition rate calculated from the amount of human IFN-β production at each compound concentration and the test compound concentration (logarithm).
Evaluation Result. […] The inhibitory effect on the IFN-β production was indicated by marking an IC50 value of less than 0.01 μM with ***, that of 0.01 μM or more and less than 0.1 μM with **, that of 0.1 μM or more and less than 1 μM with *, and that of 1 μM or more with “-”, and NT was marked as unmeasured.

[2] = molecular target: T2, hSTING (Homo sapiens, UniProt Q86WV6); test: Inhibition test of intracellular human STING (hSTING) pathways using reporter cells (HEK-Blue ISG, SEAP reporter); format: cell-based; settings: stimulation with Compound 3 (10 nM), 21 hours, read-out: Inhibitory Activity on hSTING
T2 construct: host or cells: HEK-Blue ISG cells (HEK293-derived SEAP reporter line)
T2 sequence (Q86WV6 whole entry H232R): as the sequence (Q86WV6 whole entry R71H/G230A/H232R/R293Q) above, with H71R, A230G, Q293R counted along it
Protocol: Since STING activates the transcription factor IRF3 by ligand stimulation, the activity of STING can be evaluated by a reporter assay using a secreted alkaline phosphatase (SEAP reporter) incorporated downstream of the IRF-inducible promoter. In other words, the hSTING inhibitory activity of the test compounds was evaluated using HEK-Blue™ ISG cells (manufactured by InvivoGen, #hkb-isg-1) into which the SEAP reporter was incorporated. The activation of hSTING was performed by stimulation with the small molecule ligand, Compound 3 as described in the literature (Ramanjulu, J. M., et al., Nature. 2018, 564 (7736), 439-443).
The HEK-Blue™ ISG cells were seeded in 96-well plates and cultured overnight at 37° C. in a 5% CO2 incubator. To each well of the cell culture plates, a test compound solution adjusted to have a final concentration of 0.1 to 10 μM was added and cultured in the CO2 incubator for 1 hour. Then, the Compound 3 (final concentration of 10 nM) was added thereto and further cultured in the CO2 incubator for 21 hours. After collecting the culture supernatant from each well, the reporter activity was measured by luminous reaction of alkaline phosphatase.
as §1, with “reporter activity” for “amount of human IFN-β production”, “Compound 3” for “cGAMP”
Evaluation Result. […] The inhibitory effect on the hSTING was indicated by marking an IC50 value of less than 0.1 μM with ***, that of 0.1 μM or more and less than 1 μM with **, that of 1 μM or more and less than 10 μM with *, and that of 10 μM or more with “-”.

| SMILES | pIC50 [1] | pIC50 [2] |
| --- | --- | --- |
| CCNn1c(Nc2c[nH]c3ccc(Cl)cc23)nc2cc(C(F)(F)F)cc(F)c21 [Example 14, N2-(5-chloro-1H-indol-3-yl)-N1-ethyl-7-fluoro-5-(trifluoromethyl)-1H-benzo[d]imidazole-1,2-diamine] | > 8.00 | > 7.00 |
| Nn1c(Nc2c[nH]c3cc(F)c(F)cc23)nc2cc(C(F)(F)F)ccc21 [Example 2, N2-(5,6-difluoro-1H-indol-3-yl)-5-(trifluoromethyl)-1H-benzo[d]imidazol-1,2-diamine Formate] | > 8.00 | > 7.00 |
| CNn1c(Nc2c[nH]c3cc(F)c(F)cc23)nc2cc(C(F)(F)F)c(F)cc21 [Example 10, N2-(5,6-difluoro-1H-indol-3-yl)-6-fluoro-N1-methyl-5-(trifluoromethyl)-1H-benzo[d]imidazole-1,2-diamine] | 7.00 to 8.00 | 6.00 to 7.00 |
| CCNn1c(Nc2c[nH]c3c(F)cc(F)cc23)nc2cc(C(F)(F)F)cc(F)c21 [Example 22, N2-(5,7-difluoro-1H-indol-3-yl)-N1-ethyl-7-fluoro-5-(trifluoromethyl)-1H-benzo[d]imidazole-1,2-diamine hydrochloride] | 7.00 to 8.00 | > 7.00 |
| CNn1c(Nc2c[nH]c3cc(F)c(F)cc23)nc2cc(C(F)(F)F)ccc21 [Example 4, N2-(5,6-difluoro-1H-indol-3-yl)-N1-methyl-5-(trifluoromethyl)-1H-benzo[d]imidazol-1,2-diamine] | > 8.00 | > 7.00 |

Reference: patent publication US12037325B2, “1,2-diaminobenzimidazole derivative” (Carna Biosciences, Inc., priority 2021, dated 2024)
